Laboratory results from ChEMBL document CHEMBL1147182, “Clubbed thiazoles by MAOS: a novel approach to cyclin-dependent kinase 5/p25 inhibitors as a potential treatment for Alzheimer's disease” (Bioorg Med Chem, 2007).

Columns and labels:
[1] = biological target: Cyclin-dependent kinase 5/CDK5 activator 1 (Homo sapiens, UniProt Q00535); assay: Inhibition of human cdk5/p25 by SPA; format: protein-complex assay
[2] = Cytotoxicity against VeroC1008 cells at 6.25 to 50 ug/ml by neutral red uptake assay; format: cell-based; conditions: chlorocebus sabaeus, vero

Cyclin-dependent kinase 5/CDK5 activator 1, sequence (Q00535 whole entry): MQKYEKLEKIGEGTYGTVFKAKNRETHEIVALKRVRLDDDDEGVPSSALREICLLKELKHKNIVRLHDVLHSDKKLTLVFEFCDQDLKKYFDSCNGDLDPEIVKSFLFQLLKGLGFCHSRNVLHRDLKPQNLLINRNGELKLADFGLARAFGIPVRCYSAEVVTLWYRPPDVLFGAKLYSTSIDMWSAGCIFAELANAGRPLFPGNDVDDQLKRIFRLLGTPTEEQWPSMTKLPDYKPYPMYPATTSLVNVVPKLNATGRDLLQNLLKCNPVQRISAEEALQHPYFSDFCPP
Cyclin-dependent kinase 5/CDK5 activator 1, sequence (Q15078 whole entry, further chain): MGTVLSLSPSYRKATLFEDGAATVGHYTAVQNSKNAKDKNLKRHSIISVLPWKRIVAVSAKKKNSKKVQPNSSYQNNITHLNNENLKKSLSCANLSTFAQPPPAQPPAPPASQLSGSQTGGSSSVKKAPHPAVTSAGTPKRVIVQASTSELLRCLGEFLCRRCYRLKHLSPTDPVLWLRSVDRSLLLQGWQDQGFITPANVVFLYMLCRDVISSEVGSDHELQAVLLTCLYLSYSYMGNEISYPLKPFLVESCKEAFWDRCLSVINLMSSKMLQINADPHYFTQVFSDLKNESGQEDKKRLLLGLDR

IC50 [1] [nM] | Compound | Activity [2]
536 | CC(=O)Nn1c(Cc2csc(NC(=O)CCl)n2)nnc1SCC(=O)N/N=C/c1ccccc1 | Non-toxic
340 | O=C(CCl)NNC(=O)CSc1nnc(Cc2csc(NC(=O)c3ccccc3)n2)n1NC(=O)c1ccc(Cl)cc1 | Non-toxic
641 | CC(=O)Nn1c(Cc2csc(NCCC(=O)O)n2)nnc1SCC#N | Non-toxic
364 | COC(=O)CSc1nnc(Cc2csc(NC(=O)c3ccccc3)n2)n1NC(=O)c1ccccc1 | Non-toxic
465 | NNC(=O)CSc1nnc(Cc2csc(NCCC(=O)O)n2)n1NC(=O)c1ccccc1 | Non-toxic
380 | COC(=O)CSc1nnc(Cc2csc(NC(C)=O)n2)n1NC(=O)c1ccc(Cl)cc1 | Non-toxic
354 | CC(=O)NNC(=O)CSc1nnc(Cc2csc(NC(=O)CCl)n2)n1NC(C)=O | Non-toxic
186 | CC(=O)Nn1c(Cc2csc(NC(=O)c3ccccc3)n2)nnc1SCC(=O)NN | Non-toxic
4650 | Nn1c(CSc2nnc(Cc3csc(NC(=O)c4ccccc4)n3)n2NC(=O)c2ccccc2)n[nH]c1=S | Non-toxic
587 | COC(=O)CSc1nnc(Cc2csc(NC(C)=O)n2)n1NC(=O)c1ccccc1 | Non-toxic
574 | CC(=O)Nc1nc(Cc2n[nH]c(=S)n2NC(=O)c2ccccc2)cs1 | Non-toxic
4640 | CC(=O)Nn1c(Cc2csc(NC(=O)CCl)n2)nnc1SCc1nnc(S)n1N | Non-toxic
487 | N#CCSc1nnc(Cc2csc(NCCC(=O)O)n2)n1NC(=O)c1ccccc1 | Non-toxic
464 | CC(=O)NNC(=O)CSc1nnc(Cc2csc(NC(=O)CCl)n2)n1NC(=O)c1ccc(Cl)cc1 | Non-toxic
413 | CC(=O)Nn1c(Cc2csc(NC(=O)c3ccccc3)n2)nnc1SCC(=O)NNC(=O)c1ccccc1 | Non-toxic
943 | CC(=O)Nn1c(Cc2csc(NCCC(=O)O)n2)nnc1SCC(=O)NN | Non-toxic
7480 | CC(=O)Nc1nc(Cc2nnc(SCc3n[nH]c(=S)n3N)n2NC(=O)c2ccc(Cl)cc2)cs1 | Non-toxic
684 | CC(=O)Nn1c(S)nnc1Cc1csc(NC(=O)CCl)n1 | Non-toxic
746 | COC(=O)CSc1nnc(Cc2csc(NCCC(=O)O)n2)n1NC(C)=O | Non-toxic
463 | CC(=O)Nc1nc(Cc2nnc(SCC#N)n2NC(C)=O)cs1 | Non-toxic
484 | O=C(CSc1nnc(Cc2csc(NC(=O)c3ccccc3)n2)n1NC(=O)c1ccc(Cl)cc1)NNC(=O)c1ccccc1 | Non-toxic
4780 | Nn1c(CSc2nnc(Cc3csc(NCCC(=O)O)n3)n2NC(=O)c2ccccc2)n[nH]c1=S | Non-toxic
598 | CC(=O)Nc1nc(Cc2n[nH]c(=S)n2NC(C)=O)cs1 | Non-toxic
432 | O=C(O)CCNc1nc(Cc2nnc(SCC(=O)NNC(=O)c3ccccc3)n2NC(=O)c2ccccc2)cs1 | Non-toxic

IC50 [1] [nM] | Compound | Activity [2]
426 | N#CCSc1nnc(Cc2csc(NCCC(=O)O)n2)n1NC(=O)c1ccc(Cl)cc1 | Non-toxic
246 | NNC(=O)CSc1nnc(Cc2csc(NC(=O)CCl)n2)n1NC(=O)c1ccccc1 | Non-toxic
894 | O=C(Nc1nc(Cc2n[nH]c(=S)n2NC(=O)c2ccccc2)cs1)c1ccccc1 | Non-toxic
574 | CC(=O)Nn1c(Cc2csc(NC(=O)c3ccccc3)n2)nnc1SCC#N | Non-toxic
260 | CC(=O)Nc1nc(Cc2nnc(SCC(=O)NNC(=O)CCl)n2NC(=O)c2ccc(Cl)cc2)cs1 | Non-toxic
560 | COC(=O)CSc1nnc(Cc2csc(NCCC(=O)O)n2)n1NC(=O)c1ccc(Cl)cc1 | Non-toxic
264 | Nn1c(S)nnc1Cc1csc(NCCC(=O)O)n1 | Non-toxic
674 | O=C(CCl)Nc1nc(Cc2nnc(SCSc3nnc(Cc4csc(NC(=O)CCl)n4)n3NC(=O)c3ccccc3)n2NC(=O)c2ccccc2)cs1 | Non-toxic
674 | O=C(O)CCNc1nc(Cc2nnc(S)n2NC(=O)c2ccccc2)cs1 | Non-toxic
534 | CC(=O)Nc1nc(Cc2nnc(SCC(=O)NNC(=O)c3ccccc3)n2NC(=O)c2ccc(Cl)cc2)cs1 | Non-toxic
630 | Nn1c(Cc2csc(NC(=O)c3ccccc3)n2)n[nH]c1=S | Non-toxic
698 | O=C(Nc1nc(Cc2nnc(SCSc3nnc(Cc4csc(NC(=O)c5ccccc5)n4)n3NC(=O)c3ccccc3)n2NC(=O)c2ccccc2)cs1)c1ccccc1 | Non-toxic
290 | COC(=O)CSc1nnc(Cc2csc(NC(=O)c3ccccc3)n2)n1NC(=O)c1ccc(Cl)cc1 | Non-toxic
462 | CC(=O)Nc1nc(Cc2nnc(S)n2NC(=O)c2ccc(Cl)cc2)cs1 | Non-toxic
648 | COC(=O)CSc1nnc(Cc2csc(NCCC(=O)O)n2)n1NC(=O)c1ccccc1 | Non-toxic
657 | N#CCSc1nnc(Cc2csc(NC(=O)CCl)n2)n1NC(=O)c1ccccc1 | Non-toxic
224 | O=C(CCl)NNC(=O)CSc1nnc(Cc2csc(NC(=O)CCl)n2)n1NC(=O)c1ccc(Cl)cc1 | Non-toxic
847 | CC(=O)Nc1nc(Cc2nnc(SCSc3nnc(Cc4csc(NC(C)=O)n4)n3NC(C)=O)n2NC(C)=O)cs1 | Non-toxic
6540 | CC(=O)Nc1nc(Cc2nnc(SCc3n[nH]c(=S)n3N)n2NC(=O)c2ccccc2)cs1 | Non-toxic
598 | COC(=O)CSc1nnc(Cc2csc(NC(=O)c3ccccc3)n2)n1NC(C)=O | Non-toxic
614 | CC(=O)Nn1c(S)nnc1Cc1csc(NC(=O)c2ccccc2)n1 | Non-toxic
356 | CC(=O)Nn1c(Cc2csc(NC(=O)c3ccccc3)n2)nnc1SCC(=O)NNC(=O)CCl | Non-toxic
476 | CC(=O)Nc1nc(Cc2nnc(SCC(=O)NNC(=O)CCl)n2NC(C)=O)cs1 | Non-toxic
542 | CC(=O)NNC(=O)CSc1nnc(Cc2csc(NC(C)=O)n2)n1NC(=O)c1ccccc1 | Non-toxic

IC50 [1] [nM] | Compound | Activity [2]
6650 | Nn1c(CSc2nnc(Cc3csc(NCCC(=O)O)n3)n2NC(=O)c2ccc(Cl)cc2)n[nH]c1=S | Non-toxic
641 | CC(=O)NNC(=O)CSc1nnc(Cc2csc(NC(C)=O)n2)n1NC(=O)c1ccc(Cl)cc1 | Non-toxic
356 | CC(=O)NNC(=O)CSc1nnc(Cc2csc(NC(=O)CCl)n2)n1NC(=O)c1ccccc1 | Non-toxic
6990 | Nn1c(S)nnc1CSc1nnc(Cc2csc(NC(=O)CCl)n2)n1NC(=O)c1ccccc1 | Non-toxic
268 | O=C(O)CCNc1nc(Cc2nnc(SCC(=O)NNC(=O)c3ccccc3)n2NC(=O)c2ccc(Cl)cc2)cs1 | Non-toxic
384 | CC(=O)NNC(=O)CSc1nnc(Cc2csc(NC(C)=O)n2)n1NC(C)=O | Non-toxic
463 | CC(=O)NNC(=O)CSc1nnc(Cc2csc(NCCC(=O)O)n2)n1NC(C)=O | Non-toxic
743 | CC(=O)Nn1c(Cc2csc(NCCC(=O)O)n2)nnc1SCSc1nnc(Cc2csc(NCCC(=O)O)n2)n1NC(C)=O | Non-toxic
197 | CC(=O)Nc1nc(Cc2nnc(SCC(=O)NN)n2NC(=O)c2ccccc2)cs1 | Non-toxic
6410 | CC(=O)Nn1c(Cc2csc(NCCC(=O)O)n2)nnc1SCc1nnc(S)n1N | Non-toxic
6340 | CC(=O)Nn1c(Cc2csc(NC(=O)c3ccccc3)n2)nnc1SCc1nnc(S)n1N | Non-toxic
186 | O=C(Nc1nc(Cc2nnc(S)n2NC(=O)c2ccc(Cl)cc2)cs1)c1ccccc1 | Non-toxic
643 | CC(=O)NNC(=O)CSc1nnc(Cc2csc(NC(=O)c3ccccc3)n2)n1NC(C)=O | Non-toxic
496 | N#CCSc1nnc(Cc2csc(NC(=O)c3ccccc3)n2)n1NC(=O)c1ccccc1 | Non-toxic
642 | O=C(CCl)Nc1nc(Cc2nnc(S)n2NC(=O)c2ccc(Cl)cc2)cs1 | Non-toxic
761 | O=C(CCl)Nc1nc(Cc2n[nH]c(=S)n2NC(=O)c2ccccc2)cs1 | Non-toxic
246 | O=C(CSc1nnc(Cc2csc(NC(=O)c3ccccc3)n2)n1NC(=O)c1ccc(Cl)cc1)N/N=C/c1ccccc1 | Non-toxic
526 | O=C(O)CCNc1nc(Cc2nnc(SCC(=O)N/N=C/c3ccccc3)n2NC(=O)c2ccccc2)cs1 | Non-toxic
340 | O=C(CCl)Nc1nc(Cc2nnc(SCSc3nnc(Cc4csc(NC(=O)CCl)n4)n3NC(=O)c3ccc(Cl)cc3)n2NC(=O)c2ccc(Cl)cc2)cs1 | Non-toxic
467 | COC(=O)CSc1nnc(Cc2csc(NC(C)=O)n2)n1NC(C)=O | Non-toxic
238 | O=C(O)CCNc1nc(Cc2nnc(SCC(=O)N/N=C/c3ccccc3)n2NC(=O)c2ccc(Cl)cc2)cs1 | Non-toxic
436 | CC(=O)Nc1nc(Cc2nnc(SCC(=O)NNC(=O)c3ccccc3)n2NC(C)=O)cs1 | Non-toxic
640 | O=C(Nc1nc(Cc2nnc(SCSc3nnc(Cc4csc(NC(=O)c5ccccc5)n4)n3NC(=O)c3ccc(Cl)cc3)n2NC(=O)c2ccc(Cl)cc2)cs1)c1ccccc1 | Non-toxic
476 | CC(=O)Nn1c(Cc2csc(NCCC(=O)O)n2)nnc1SCC(=O)NNC(=O)c1ccccc1 | Non-toxic
